Experimental data: patent US11952582B2, “Herbicide-resistance gene and application thereof in plant breeding” (priority 2017, dated 2024)

Key:
[1] = test system: Arabidopsis WT, OE At, OE Pa, OE M3 potted plants; assay: Herbicide resistance of Arabidopsis at pot level (spray); format: in vivo, Arabidopsis thaliana
Procedure: 2 week-old Arabidopsis seedlings of WT, OE At, OE Pa, and OE M3 were transplanted into soil-filled pots (12 seedlings per pot) and growth in a phytotron (22° C., 14 h light/10 h dark, 120 μmol m^−2 s^−1 light intensity) for 4 weeks. Then, 5 μM mesotrione solution (prepared with 0.05% Tween-20) were sprayed twice with a treatment interval of 3 days, and compared with the control treatment (0.05% Tween-20 without herbicide). The spray treatment was biologically repeated 3 times. Two weeks after the first herbicide spray, the test results were photographed.

[2] = test system: WT (William 82) and OE PaHPPD-SDM soybean leaves; assay: Soybean resistance to herbicide at leaf level (leaf coating); format: in vivo; details: leaf coating 0-30 μM, 2 weeks
Procedure: Transgenic T0 generation OE SDMHPPD and WT soybean (William 82) seedlings were planted in pots and placed in an artificial climate room (27° C., […], light/dark) for growth. After 4 weeks, 0, 1, 5, 10 and 30 μM of mesotrione (prepared with 0.1% Tween-20) and 0.1% Tween-20 were dipped with cotton swabs and evenly coated to the leaves of OE SDMHPPD (OE SDM #12 and OE SDM #13) T0 generation and WT seedlings having a height of 30-40 cm. Then, the phenotype was observed every week, and the experimental result was recorded by taking photos 2 weeks after the treatment.
To further test the resistance of transgenic soybeans to herbicides, 20 μM mesotrione (prepared with 0.1% Tween-20) and 0.1% Tween-20 were dipped with cotton swabs and evenly coated to the trifoliate leaves of 2 week-old WT, OE GmHPPD (OE GmHPPD #9) T1 generation seedlings and OE SDMHPPD (OE SDMHPPD #12) T1 generation. Then, the phenotype was observed every day, and the experimental result was recorded by taking photos 10 days after the treatment.

[3] = test system: WT (William 82), OE GmHPPD and OE PaHPPD-SDM T1 soybean plants; assay: Soybean resistance to herbicide at whole plant level (spraying); format: in vivo; details: 20 μM sprayed twice
Procedure: 20 μM mesotrione (prepared with 0.1% Tween-20) and 0.1% Tween-20 were spray to 4 week-old transgenic T1 generation OE SDMHPPD, T1 generation OE GmHPPD and WT soybean which were grown in an artificial climate chamber (27° C., […], light/dark) for the first time. A second spray was applied after 1 week. Then the phenotype of the plants was observed very day, and the experimental result was recorded by taking photos 2 weeks after the treatment.

Compound: CS(=O)(=O)c1ccc(C(=O)C2C(=O)CCCC2=O)c([N+](=O)[O-])c1 [mesotrione]
- maximum tolerance concentration under potted conditions ([1]; Arabidopsis overexpressing PaHPPD-M3, sprayed on fully expanded leaves): 5 µM
- phenotype ([1]; OE M3 line, 5 μM sprayed twice, 2 weeks after first spray): grows well
- phenotype of new leaves of seedlings ([1]; WT, OE At and OE Pa lines, 5 μM sprayed twice, 2 weeks after first spray): completely albino
- concentration at which leaves did not show symptoms of albino (bleaching) and damage ([2]; OE PaHPPD-SDM soybean line): 30 µM
- concentration at which leaves showed albino (bleaching) symptom ([2]; wild-type soybean William 82): 5 µM
- phenotype after whole plant spraying ([3]; OE PaHPPD-SDM T1 line): grew normally
- phenotype after whole plant spraying ([3]; wild-type William 82 and OE GmHPPD T1 line): albino symptom and growth retardation
